Test results published in PMC4548243, “Nuclear Localization of the DNA Repair Scaffold XRCC1: Uncovering the Functional Role of a Bipartite NLS” (Scientific Reports, 2015).
Residues, ends and D or L forms follow the SMILES beside them. *: point of attachment. FITC = O=C1OC2(c3ccc(O)cc3Oc3cc(O)ccc32)c2ccc(NC(=S)*)cc21

Biological target: T1, Impα(70–529)(W184R/W231R) (Mus musculus, UniProt P52293, W184R/W231R)
T1 construct: His tag; made in house; host or cells: E. coli BL21(DE3), pET30
Test: Fluorescence polarization titration of FITC-labeled XRCC1 NLS peptides with major-site mutant Impα(70–529)(W184R/W231R)
Assay type: binding, murine
Settings: relative to wild-type Impα(70–529)
Method: A His-tagged murine Importin α protein with the Importin β binding domain (IBB) deleted, which is identical to Impα(70–529) studied by Fontes et al.[30], was expressed in E. coli. […] The major binding pocket double mutant W184R/W231R was created using a Quikchange site-directed mutagenesis kit (Agilent).
Protein concentrations were determined by the Edelhoch procedure[59].
Apparent peptide dissociation constants were determined based on fluorescence polarization measurements using FITC-labeled peptides. Impα(70–529) was exchanged into FP buffer (20 mM Tris, pH 7.7, 125 mM NaCl, 1 mM EDTA, 2 mM tris(2-carboxyethyl)phosphine, 5% sucrose, 10 mM NaN3). […] 50 μL volumes of the binding reactions were pipetted into wells of a 96-well black flat bottomed plate and fluorescence polarization was read at room temperature with the POLARstar Omega microplate reader (BMG Labtech) using excitation at 485 nm and emission at 520 nm. […] The fluorescence polarization values generated by the experiments are arbitrary, so for easy comparisons among samples, the data were normalized to a 0–100 scale after curve-fitting. […]
Where Ycalc represents the fluorescence polarization value that is generated by the model. […]
The FITC tags were selected in an attempt to minimize possible non-specific interactions of the fluorescein with the Impα(70–529). […] Concentrations of unlabeled peptides were determined by UV absorbance[62].

**Q.** `CC(C)C[C@H](NC(=O)[C@H](CCCCN)NC(=O)[C@@H]1CCCN1C(=O)[C@H](CCCNC(=N)N)NC(=O)[C@H](CCCCN)NC(=O)[C@@H]1CCCN1C(=O)[C@@H](NC(=O)[C@@H](N)CO)C(C)C)C(=O)N1CCC[C@H]1C(=O)NCC(=O)N[C@@H](CCCCNC(=S)Nc1ccc2c(c1)C(=O)OC21c2ccc(O)cc2Oc2cc(O)ccc21)C(=O)O` [Peptide M2] (H-SVPKRPKLPGK(FITC)-OH; N-terminus and C-terminus assumed) was tested. Which “binding affinity to Impα(70–529)(W184R/W231R), in words” value did it give?
**A.** The value was “interacts only weakly”.

**Q.** How did the “binding affinity to Impα(70–529)(W184R/W231R), in words” value turn out when `CC(C)C[C@H](NC(=O)[C@H](CCCCN)NC(=O)[C@H](CCCNC(=N)N)NC(=O)[C@H](CCCCN)NC(=O)CNC(=O)CNC(=S)Nc1ccc2c(c1)C(=O)OC21c2ccc(O)cc2Oc2cc(O)ccc21)C(=O)O` [Peptide M1] ({FITC}-GGKRKL-OH; C-terminus assumed) was run?
**A.** Its value is “essentially unaffected”.
